US12497530B2, “Active energy ray polymerization initiator, active energy ray curing composition, active energy ray curing ink, aqueous active energy ray curing ink, container, image forming device, image forming method, and method of manufacturing active energy ray polymerization initiator” (Ricoh Company, Ltd., priority 2021, dated 2025)

Test: Absorption spectrum in methylene chloride at 50 ppm
Format: physicochemical
Settings: for Absorption of light (absorption spectrum): methylene chloride, 50 ppm, FIGS. 1 to 4
Description: One way of measuring the λmax of an active energy ray polymerization initiator is to dissolve an active energy ray polymerization initiator in methylene chloride at 50 ppm followed by measuring the absorption spectrum of this solution by a spectrophotometer for ultraviolet, visible light, and near infrared, V-680, manufactured by JASCO Corporation.
The absorption spectrum was measured by a spectrophotometer V-680 for UV, visible light, and near IR, manufactured by JASCO Corporation.
The absorption spectra of the active energy ray polymerization initiators Ref-1, Ref-2, and Ref-4 were measured as described above.

SMILES	Support of LED light source of 365 nm, 385 nm, and 395 nm (judged from absorption spectrum)	Absorption of light (absorption spectrum)
CCCCCCCCCCCCOc1ccc2sc3ccccc3c(=O)c2c1 [Ref-1, 2-dodecyloxy thioxanthone]	support an LED light source of 365 nm, 385 nm, and 395 nm	fully absorb light having a wavelength of 400 nm or less
CC(C)(O)C(=O)c1ccccc1 [Ref-4, 2-Hydroxy-2-methyl-1-phenylpropane-1-one]	–	does not absorb light having a wavelength of 350 nm or greater at all
